Experimental data as given in patent publication US20250271426A1, “REDUCTION OF BITTER TASTE OF ACTIVE PHARMACEUTICAL INGREDIENTS AND RELATED ASSAYS AND SCREENING METHODS” (Firmenich Incorporated, priority 2022, published 2025).

How the values were obtained:
Experiment in all cases: FLIPR calcium assay, cells with promiscuous G protein transfected with bitter receptor cDNA
Assay type in all cases: cell-based
Conditions in all cases: responsive if cellular response of >10% over baseline, Fluo4-AM
[1] = molecular target: T1, T2R receptor SEQ ID NO: 5 (S5) (Homo sapiens, UniProt P59534)
T1 construct: expressed in transfected cells; host or cells: cells expressing a promiscuous G protein (e.g., G16g44)
T1 sequence (P59534 18-338): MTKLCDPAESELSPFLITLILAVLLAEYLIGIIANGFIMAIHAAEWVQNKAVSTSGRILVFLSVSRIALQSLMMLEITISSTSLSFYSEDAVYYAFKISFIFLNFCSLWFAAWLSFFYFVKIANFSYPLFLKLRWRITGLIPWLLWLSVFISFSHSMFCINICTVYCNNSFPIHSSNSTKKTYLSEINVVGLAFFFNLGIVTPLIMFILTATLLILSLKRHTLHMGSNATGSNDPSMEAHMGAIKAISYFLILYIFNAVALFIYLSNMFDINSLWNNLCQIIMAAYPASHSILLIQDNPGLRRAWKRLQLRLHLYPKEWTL
How it was run: (§1)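 Cells carrying promiscuous G protein G16g44 were transfected with a single bitter receptor cDNA each, cultured 28 hours, then loaded with Fluo4-AM for 60 minutes. After washing, agonist addition and intracellular fluorescence were recorded together by FLIPR. A receptor counted as responsive at >10% over baseline.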

[2] = molecular target: T2, T2R receptor SEQ ID NO: 4 (S4) (Homo sapiens, UniProt Q9NYV8)
T2 construct: expressed in transfected cells; host or cells: cells expressing a promiscuous G protein (e.g., G16g44)
T2 sequence (Q9NYV8 1-317): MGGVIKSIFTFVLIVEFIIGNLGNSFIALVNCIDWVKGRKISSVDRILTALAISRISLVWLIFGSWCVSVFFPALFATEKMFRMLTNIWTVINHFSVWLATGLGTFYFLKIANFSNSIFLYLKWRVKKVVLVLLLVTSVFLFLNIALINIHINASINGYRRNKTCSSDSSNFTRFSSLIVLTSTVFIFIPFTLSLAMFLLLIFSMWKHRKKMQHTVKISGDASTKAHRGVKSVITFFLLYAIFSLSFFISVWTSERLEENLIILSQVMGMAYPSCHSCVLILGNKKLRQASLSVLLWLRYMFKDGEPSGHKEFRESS
How it was run: as §1

[3] = molecular target: T3, T2R receptor SEQ ID NO: 2 (S2) (Homo sapiens, UniProt Q9NYW2)
T3 construct: expressed in transfected cells; host or cells: cells expressing a promiscuous G protein (e.g., G16g44)
T3 sequence (Q9NYW2 1-309): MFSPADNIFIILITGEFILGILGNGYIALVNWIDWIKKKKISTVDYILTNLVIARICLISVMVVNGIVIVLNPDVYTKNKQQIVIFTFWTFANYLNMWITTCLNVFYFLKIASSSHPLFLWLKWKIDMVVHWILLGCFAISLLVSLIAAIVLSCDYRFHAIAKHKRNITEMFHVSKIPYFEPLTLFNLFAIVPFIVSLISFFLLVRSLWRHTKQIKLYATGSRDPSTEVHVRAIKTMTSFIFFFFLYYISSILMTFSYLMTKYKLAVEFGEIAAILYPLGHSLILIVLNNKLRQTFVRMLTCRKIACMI
How it was run: as §1

[4] = molecular target: T4, T2R receptor SEQ ID NO: 1 (S1) (Homo sapiens, UniProt Q9NYW7)
T4 construct: expressed in transfected cells; host or cells: cells expressing a promiscuous G protein (e.g., G16g44)
T4 sequence (Q9NYW7 1-299): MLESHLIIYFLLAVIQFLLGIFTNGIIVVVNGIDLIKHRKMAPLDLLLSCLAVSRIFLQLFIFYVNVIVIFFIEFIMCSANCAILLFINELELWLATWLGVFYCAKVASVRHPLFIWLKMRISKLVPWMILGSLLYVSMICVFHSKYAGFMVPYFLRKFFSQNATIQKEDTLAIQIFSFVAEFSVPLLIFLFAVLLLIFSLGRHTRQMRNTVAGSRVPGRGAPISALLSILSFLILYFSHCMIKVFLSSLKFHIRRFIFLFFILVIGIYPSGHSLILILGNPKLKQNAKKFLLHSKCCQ
How it was run: as §1

[5] = molecular target: T5, T2R receptor SEQ ID NO: 3 (S3) (Homo sapiens, UniProt Q9NYW0, T156M)
T5 construct: expressed in transfected cells; host or cells: cells expressing a promiscuous G protein (e.g., G16g44)
T5 sequence (Q9NYW0 1-307 T156M): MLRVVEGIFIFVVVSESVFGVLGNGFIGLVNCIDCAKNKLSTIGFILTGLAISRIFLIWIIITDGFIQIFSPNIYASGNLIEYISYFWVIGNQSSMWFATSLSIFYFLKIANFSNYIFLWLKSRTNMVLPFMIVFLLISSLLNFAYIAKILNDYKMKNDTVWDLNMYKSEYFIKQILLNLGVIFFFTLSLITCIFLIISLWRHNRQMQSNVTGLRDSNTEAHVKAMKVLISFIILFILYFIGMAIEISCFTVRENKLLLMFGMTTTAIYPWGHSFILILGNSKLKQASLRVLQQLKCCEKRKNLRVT
How it was run: as §1

[6] = molecular target: T6, T2R receptor SEQ ID NO: 6 (S6) (Homo sapiens, UniProt P59540)
T6 construct: expressed in transfected cells; host or cells: cells expressing a promiscuous G protein (e.g., G16g44)
T6 sequence (P59540 1-309): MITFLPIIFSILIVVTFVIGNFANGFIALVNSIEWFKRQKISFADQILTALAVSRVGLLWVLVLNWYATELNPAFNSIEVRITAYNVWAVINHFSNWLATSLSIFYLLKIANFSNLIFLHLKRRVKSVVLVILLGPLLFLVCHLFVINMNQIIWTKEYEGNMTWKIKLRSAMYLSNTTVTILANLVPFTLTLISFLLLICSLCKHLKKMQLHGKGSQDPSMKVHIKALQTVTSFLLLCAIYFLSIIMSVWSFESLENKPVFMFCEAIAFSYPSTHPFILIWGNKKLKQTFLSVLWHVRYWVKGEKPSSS
How it was run: as §1

Structure (SMILES)	S5 positive response of T2R receptor to API [1]	S4 positive response of T2R receptor to API [2]	S2 positive response of T2R receptor to API [3]	S1 positive response of T2R receptor to API [4]	S3 positive response of T2R receptor to API [5]	S6 positive response of T2R receptor to API [6]
COc1ccccc1OCC(O)CO (centres unmarked) [Guaifenesin]	+ (a “+” to indicate whether a particular T2R receptor showed a positive response to a particular API)	+ (a “+” to indicate whether a particular T2R receptor showed a positive response to a particular API)	+ (a “+” to indicate whether a particular T2R receptor showed a positive response to a particular API)	+ (a “+” to indicate whether a particular T2R receptor showed a positive response to a particular API)	+ (a “+” to indicate whether a particular T2R receptor showed a positive response to a particular API)	–
CCOC(=O)[C@H](CCc1ccccc1)N[C@@H](C)C(=O)N1CCC[C@H]1C(=O)O [Enalapril]	+ (a “+” to indicate whether a particular T2R receptor showed a positive response to a particular API)	+ (a “+” to indicate whether a particular T2R receptor showed a positive response to a particular API)	+ (a “+” to indicate whether a particular T2R receptor showed a positive response to a particular API)	+ (a “+” to indicate whether a particular T2R receptor showed a positive response to a particular API)	–	+ (a “+” to indicate whether a particular T2R receptor showed a positive response to a particular API)
NC(N)=Nc1nc(CSCCC(N)=NS(N)(=O)=O)cs1 [Famotidine]	+ (a “+” to indicate whether a particular T2R receptor showed a positive response to a particular API)	–	+ (a “+” to indicate whether a particular T2R receptor showed a positive response to a particular API)	+ (a “+” to indicate whether a particular T2R receptor showed a positive response to a particular API)	+ (a “+” to indicate whether a particular T2R receptor showed a positive response to a particular API)	+ (a “+” to indicate whether a particular T2R receptor showed a positive response to a particular API)
CCC[C@@H]1C[C@@H](C(=O)N[C@@H]([C@H]2O[C@H](SC)[C@H](O)[C@@H](O)[C@H]2O)[C@H](C)Cl)N(C)C1 [Clinamycin]	+ (a “+” to indicate whether a particular T2R receptor showed a positive response to a particular API)	+ (a “+” to indicate whether a particular T2R receptor showed a positive response to a particular API)	+ (a “+” to indicate whether a particular T2R receptor showed a positive response to a particular API)	–	+ (a “+” to indicate whether a particular T2R receptor showed a positive response to a particular API)	–
O=C(N[C@H](CO)[C@H](O)c1ccc([N+](=O)[O-])cc1)C(Cl)Cl [Chloramphenicol]	+ (a “+” to indicate whether a particular T2R receptor showed a positive response to a particular API)	–	+ (a “+” to indicate whether a particular T2R receptor showed a positive response to a particular API)	+ (a “+” to indicate whether a particular T2R receptor showed a positive response to a particular API)	+ (a “+” to indicate whether a particular T2R receptor showed a positive response to a particular API)	+ (a “+” to indicate whether a particular T2R receptor showed a positive response to a particular API)
CN(C)CCOC(c1ccccc1)c1ccccc1 [Diphenhydramine]	+ (a “+” to indicate whether a particular T2R receptor showed a positive response to a particular API)	+ (a “+” to indicate whether a particular T2R receptor showed a positive response to a particular API)	+ (a “+” to indicate whether a particular T2R receptor showed a positive response to a particular API)	+ (a “+” to indicate whether a particular T2R receptor showed a positive response to a particular API)	+ (a “+” to indicate whether a particular T2R receptor showed a positive response to a particular API)	+ (a “+” to indicate whether a particular T2R receptor showed a positive response to a particular API)
CC[N+](C)(CC)CCOC(=O)C(O)(c1ccccc1)C1CCCCC1 (centres unmarked) [Oxyphenonium]	+ (a “+” to indicate whether a particular T2R receptor showed a positive response to a particular API)	–	+ (a “+” to indicate whether a particular T2R receptor showed a positive response to a particular API)	+ (a “+” to indicate whether a particular T2R receptor showed a positive response to a particular API)	+ (a “+” to indicate whether a particular T2R receptor showed a positive response to a particular API)	+ (a “+” to indicate whether a particular T2R receptor showed a positive response to a particular API)
CN(C)CCC=C1c2ccccc2COc2ccccc21 [Doxepin]	+ (a “+” to indicate whether a particular T2R receptor showed a positive response to a particular API)	+ (a “+” to indicate whether a particular T2R receptor showed a positive response to a particular API)	+ (a “+” to indicate whether a particular T2R receptor showed a positive response to a particular API)	+ (a “+” to indicate whether a particular T2R receptor showed a positive response to a particular API)	+ (a “+” to indicate whether a particular T2R receptor showed a positive response to a particular API)	+ (a “+” to indicate whether a particular T2R receptor showed a positive response to a particular API)
